From PMC4604100, “Melanocortin agonists stimulate lipolysis in human adipose tissue explants but not in adipocytes” (BMC Research Notes, 2015)
Entries after “also recorded” stand apart in the source; their conditions may differ. Where no end group is shown, it is not given here.

Assays:
human MCRs = experiment: Binding rank order across human MCRs; conditions: order of affinity
Procedure: (§1) The human MC1R, MC3R, MC4R and MC5R were cloned by PCR and subcloned into the pcDNA3 expression vector, as previously described by Conde-Frieboes et al.. Cells stably expressing the human MCRs were generated by transfecting the expression vector into BHK570 cells (ATTC) and using 1 mg/mL G418 to select for stable clones. The stable cell lines were cultured in DMEM with glutamax, 10 % FCS, 1 % pen/strep, and 1 mg/mL G418 at 37 °C and 5 % CO2. […] Test compounds were dissolved to a 4 mM concentration in DMSO and diluted in a receptor specific binding buffer. […] A filtration system was employed to separate bound from unbound radioligand.
(§2) Data analysis and statistics

[1] = system: intact human white adipose tissue explants; experiment: Glycerol release in human WAT explants (lipolysis); assay type: cell-based; conditions: subcutaneous explants from non-obese females, 100 nM–10 μM, 3 h; mean of 2 independent experiments in triplicate wells
Procedure: (§3) Adipose tissue biopsies used for stimulation of lipolysis were taken from the subcutaneous abdominal region by needle aspiration as previously described. The experimental group consisted of 6 non-diabetic females with a normal/preobese BMI (average BMI = 25.5). All biopsies were transported in sterile containers to the laboratory within 30 min after removal. The biopsies were washed repeatedly with isotonic saline and were used for subsequent culture.
Induction of NEFA and glycerol release in adipocytes and intact adipose tissue explants was used as a measure of lipolysis with β-adrenergic agonist isoproterenol as a positive control as previously described. When using propranolol, 10 μM was used as final concentration. 250 mg of human adipose tissue was placed in 15 mL tubes, immediately covered with 2.5 mL of preheated (37 °C) hyclone media and preincubated for 24 h. After 24 h, the media was replenished and explants were stimulated with the indicated melanocortin peptide for 3 h before harvesting the supernatant for NEFA and glycerol analysis. In house testing has shown no indications of hypoxia when stimulating explants (data not shown). All test compounds were dissolved to 4 mM in DMSO (highest DMSO concentration of 0.25 % in the assay) and diluted in DPBS buffer + 2 % bovine serum albumin (BSA). Human subcutaneous adipocytes purchased from Zenbio Inc., were used in stimulation of lipolysis (n = 4). These adipocytes have been isolated from obese males. When receiving the cells (and partially during transportation), the cells was differentiated from a pre-state to a mature state before the cells are used for experiments. […]
(§4) Data from the NEFA and the glycerol assay were obtained using the protocol supplied by the manufactures. Released NEFAs were analyzed in Graphpad Prism and one-tailed t test was used to calculate statistical significance between 2 groups (*p < 0.05, **p < 0.01, ***p < 0.001, no * indicates insignificance). Ki values in bindings studies were calculated as Ki = IC50/1 + [radioligand]/Kd. Data from binding studies was analyzed in Graphpad Prism.

MC4R over MC3R = conditions: factor; ref [46] Greenfield et al.; cited from earlier work
MC4R over MC1R = conditions: factor; ref [46] Greenfield et al.; cited from earlier work
[2] = system: human subcutaneous adipocytes; experiment: NEFA release in differentiated human subcutaneous adipocytes; assay type: cell-based; conditions: for stimulation of NEFA release (in words): human subcutaneous adipocytes (ZenBio, obese males), 1 pM–10 μM, n = 4
Procedure: (§5) Induction of NEFA and glycerol release in adipocytes and intact adipose tissue explants was used as a measure of lipolysis with β-adrenergic agonist isoproterenol as a positive control as previously described. When using propranolol, 10 μM was used as final concentration. 250 mg of human adipose tissue was placed in 15 mL tubes, immediately covered with 2.5 mL of preheated (37 °C) hyclone media and preincubated for 24 h. After 24 h, the media was replenished and explants were stimulated with the indicated melanocortin peptide for 3 h before harvesting the supernatant for NEFA and glycerol analysis. In house testing has shown no indications of hypoxia when stimulating explants (data not shown). All test compounds were dissolved to 4 mM in DMSO (highest DMSO concentration of 0.25 % in the assay) and diluted in DPBS buffer + 2 % bovine serum albumin (BSA). Human subcutaneous adipocytes purchased from Zenbio Inc., were used in stimulation of lipolysis (n = 4). These adipocytes have been isolated from obese males. When receiving the cells (and partially during transportation), the cells was differentiated from a pre-state to a mature state before the cells are used for experiments. The cells were handled according to the description from ZenBio Inc. Two hours was chosen as the optimal incubation time span for primary adipocytes, based on similar experiments in other species. […] Measures of melanocortin-stimulated glycerol release were added in explant lipolysis studies.
as §4

[3] = system: intact human white adipose tissue explants; experiment: NEFA release in human WAT explants (lipolysis); assay type: cell-based; conditions: for increase in NEFA release compared to vehicle: 100 nM, 3 h stimulation, mean of 6 (α-MSH 3) independent experiments in triplicate wells; for increase in NEFA release compared to vehicle / stimulation of NEFA release / lipolysis (in words): subcutaneous explants from non-obese females; for Emax of lipolysis compared to isoproterenol (in words): intact human WAT explants; for stimulation of NEFA release / lipolysis (in words): 100 nM–10 μM, 3 h, one-tailed t test vs. vehicle
Procedure: as §3, §5, §4

hMC1R = biological target: T1, hMC1R (Homo sapiens, UniProt Q01726); experiment: Competition binding of 125I-NDP-α-MSH to membranes of BHK570 cells expressing hMC1R; conditions: competition with fixed 125I-NDP-α-MSH, test compound 1 pM–10 μM, filtration, average of repeated independent experiments ± SEM, n = 3 (α-MSH n = 18)
T1 construct: expressed in transfected cells
T1 sequence (Q01726 whole entry): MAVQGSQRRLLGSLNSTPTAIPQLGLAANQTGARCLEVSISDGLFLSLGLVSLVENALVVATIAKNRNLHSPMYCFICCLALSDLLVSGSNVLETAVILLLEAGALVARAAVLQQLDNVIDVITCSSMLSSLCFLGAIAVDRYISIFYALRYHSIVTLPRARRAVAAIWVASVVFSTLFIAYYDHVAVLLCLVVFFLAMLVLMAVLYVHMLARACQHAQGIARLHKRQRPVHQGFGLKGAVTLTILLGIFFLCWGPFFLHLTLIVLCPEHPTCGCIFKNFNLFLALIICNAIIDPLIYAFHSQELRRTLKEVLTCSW
Procedure: as §1, §2

MC5R = conditions: agonist; ref [47]; cited from earlier work
MC3R = conditions: antagonist; ref [47]; cited from earlier work
[4] = system: human white adipose tissue (WAT) explants; experiment: NEFA release in human WAT explants ± propranolol; assay type: cell-based
Procedure: as §3, §5, §4

WAT = system: WAT; set-up: method as in earlier work; conditions: intranasal administration; ref [50] Wellhöner et al.; cited from earlier work
Description: However, it should be taken into account, that there may be downstream MCR mechanisms of propranolol that are unknown, which is a precaution using this antagonist. Depleting the explants with reserpine before stimulation could add additional confidence to the ...

[5] = system: mesenchymal stem cell-derived adipocytes; conditions: ref [52] Hoch et al.; cited from earlier work
Description: (§6) The lack of lipolytic response seen in adipocytes is supported by previous studies by Hoch et al. [[5 ...

[6] = system: mesenchymal stem cell-derived adipocytes; intact adipose tissue explants; conditions: mesenchymal stem cell-derived adipocytes or intact adipose tissue explants; ref [52] Hoch et al.; cited from earlier work
Description: as §6

rabbit adipocytes = conditions: ref [39] Richter et al.; cited from earlier work
Description: MC5R is extensively distributed in the periphery, and is reported to regulate sebaceous gland secretion and fatty acid oxidation in skeletal muscle. The melanocortin system has a well-established lipolytic effect in rodent adipose tissues. Studies in murine primary adipocytes and differentiated 3T3-L1 adipocytes show a direct lipolytic effect of MC2R and MC5R when stimulated by various endogenous and synthetic melanocortin agonists.

primary mouse adipocytes = conditions: mediated by MC2R and MC5R, ref [35], [37], [38]; cited from earlier work
Description: as §6

[7] = system: adipocytes or intact human adipose tissue; conditions: own finding "supported by other studies", ref [51], [52]; cited from earlier work
Description: (§7) ACTH is a larger peptide than both α-MSH and the synthetic melanocortin compounds used in this study.

[8] = system: adipocytes isolated from subcutaneous adipose tissue; conditions: adipocytes isolated from subcutaneous adipose tissue of non-diabetic human; ref [53] Xue et al.; cited from earlier work
Description: as §7

In the case of `CC(=O)N[C@H](CCCNC(=N)N)C(=O)N[C@H]1CSSC[C@@H](C(N)=O)NC(=O)[C@H](Cc2c[nH]c3ccccc23)NC(=O)[C@H](CCCNC(=N)N)NC(=O)[C@@H](Cc2ccccc2)NC(=O)[C@H](Cc2c[nH]cn2)NC(=O)[C@H](CCC(=O)O)NC1=O` [LY2112688], the binding rank order (human MCRs) is given as “MC4R > MC3R > MC1R”, the “stimulation of glycerol release (in words)” value [1] is given as “stimulated release of glycerol” and the “increased affinity for MC4R over MC3R” value (MC4R over MC3R) is given as “more than 100”. For the same compound, the “increased affinity for MC4R over MC1R” value (MC4R over MC1R) was “more than 30”, the “stimulation of NEFA release (in words)” value [2] was “failed to stimulate NEFA release” and the “increase in NEFA release compared to vehicle” value (from here on “increase in NEFA release”) [3] was 46%. For the same compound, the “Emax of lipolysis compared to isoproterenol (in words)” value [3] was “relatively lower Emax” and the “stimulation of NEFA release / lipolysis (in words)” value [3] was “significantly stimulated lipolysis; also recorded: stimulated a low, though significant, release of NEFA; also recorded: significantly stimulate release of NEFA”.
In the case of `CCCC[C@H](NC(C)=O)C(=O)N[C@H]1CC(=O)NCCCC[C@@H](C(N)=O)NC(=O)[C@H](Cc2c[nH]c3ccccc23)NC(=O)[C@H](CCCNC(=N)N)NC(=O)[C@@H](Cc2ccc3ccccc3c2)NC(=O)[C@@H]2CCCN2C1=O` [PG-901], the “stimulation of glycerol release (in words)” value [1] is listed as “stimulated release of glycerol”, the Ki (hMC1R) is listed as 2700 ± 153 nM and the “binding to MC5R (in words)” value (MC5R) is listed as “high affinity”. The “binding to MC3R (in words)” value (MC3R) was “high affinity”, the “stimulation of NEFA release (in words)” value [2] was “failed to stimulate NEFA release” and the “increase in NEFA release” value [3] was 38%. The “Emax of lipolysis compared to isoproterenol (in words)” value [3] was “relatively lower Emax” and the “stimulation of NEFA release / lipolysis (in words)” value [3] was “significantly stimulated lipolysis; also recorded: stimulated a low, though significant, release of NEFA; also recorded: significantly stimulate release of NEFA”.
For `CC(C)NCC(O)c1ccc(O)c(O)c1` (stereo not drawn) [isoproterenol], the “stimulation of NEFA release (in words)” value [2] was “potent release of NEFA”, the “increase in NEFA release” value [3] was 114% and the “stimulation of NEFA release / lipolysis (in words)” value [3] was “potent release of NEFA”.
With `CC(C)NCC(O)COc1cccc2ccccc12` (stereo not drawn) [propranolol] the “decrease of LY2112688-stimulated NEFA release (in words)” value ([4]; 10 μM propranolol + LY2112688 (100 nM–10 μM), female human subcutaneous explants, 3 independent experiments in triplicate wells) was “did not significantly decrease the release of NEFA”, the “decrease of PG-901-stimulated NEFA release (in words)” value ([4]; 10 μM propranolol + PG-901 (100 nM–10 μM), female human subcutaneous explants, 3 independent experiments in triplicate wells) was “significantly decreased the release of NEFA” and the “decrease of isoproterenol-stimulated NEFA release (in words)” value ([4]; 10 μM propranolol + isoproterenol, female human subcutaneous explants, 3 independent experiments in triplicate wells) was “significantly decreased the release of NEFA”. For the same compound, the “inhibition of NEFA release on co-incubation (in words)” value ([4]; propranolol co-incubation, MC4R/MC5R-mediated lipolysis, overview figure) was “inhibits NEFA release”.
In the case of “MSH/ACTH(4-10): intranasally administered melanocortin fragment in Wellhöner et al. (MEHFRWG; Corticotropin; UniProt P01189 141-147, looked up, fragment)”, the “glycerol concentrations in WAT (in words)” value (WAT) is listed as “increased glycerol concentrations in WAT”.
In the case of NDP-α-MSH, the “cAMP response (in words)” value [5] is listed as “weak cAMP response” and the “effect on lipolysis (in words)” value [6] is listed as “did not find an effect on lipolysis”.
For “SYSMEHFRWGKPVGKKRRPVKVYPNGAEDESAEAFPLEF [ACTH]”, the binding rank order (human MCRs) is listed as “MC1R > MC4R > MC3R > MC5R”, the “effect on lipolysis (in words)” value (rabbit adipocytes) is listed as “direct effect” and the “stimulation of glycerol release (in words)” value [1] is listed as “failed to stimulate NEFA and glycerol release”. For the same compound, the “lipolytic capacity (in words)” value (primary mouse adipocytes) was “lipolytic capacity”, the “lipolytic capacity (in words)” value [7] was “no lipolytic capacity” and the “stimulation of lipolysis (in words)” value [8] was “stimulated lipolysis”. The “lipolytic capacity (in words)” value ([2]; adipocytes) was “no lipolytic capacity”, the “stimulation of NEFA release (in words)” value [2] was “failed to stimulate NEFA release” and the “lipolytic capacity (in words)” value ([3]; intact human adipose tissue) was “no lipolytic capacity”. The “stimulation of NEFA release / lipolysis (in words)” value [3] was “failed to stimulate NEFA”.
